Eight compounds from US10576077B2, “Pharmaceutical salt forms of Cepharanthine and Tetrandrine” (Southwest Research Institute, priority 2015, dated 2020) can be followed below.

Structures can show the parent of a compound that is named as a salt.

Series [1] is classed as physicochemical. As for the experimental part:
A small amount of the sample (0.6 ml) was removed from each vial and centrifuged to collect 0.3 ml clear supernatant.
The sample was filtered through a 0.45 μm PTFE syringe filter and the filtrate sent for HPLC analysis (Table 10).

Series [2] can be described thus: Solubility of Cepharanthine salts in water. In kind it is physicochemical.
In another series the test system is rat test animals. In words: Oral dosing of concentrated CEPN.2HCl water solutions in rats. It counts as in vivo. Conditions: ENG sample, concentrated water solution.

In the case of CEPN.2HCl [16-0203-012-105-23], the Sample solubility in series [1] is 36.5 mg/mL. Compound CEPN.2HCl [16-0203-012-097-27] returned a Sample solubility in series [1] of 31.9 mg/mL. For Cepharanthine.2HCl [CEPN.2HCl], in series [2], the “Final Concentration (solubility in water)” value is on record as 51.6 mg/mL. Also, the “Effect of oral dosing of concentrated water solutions” value with rat test animals was “gelation in the stomach of the rat test animals and resultant toxic effects”. CEPN.2HCl [16-0203-012-119-35]: the Sample solubility in series [1] turned out to be 33.9 mg/mL. In turn, CEPN.2HCl [16-0203-012-098-27] came in with a Sample solubility in series [1] of 39.7 mg/mL. Take “Cepharanthine bis-pyruvate [Pyruvic acid salt]”: the “Final Concentration (solubility in water)” value in series [2] is 488 mg/mL. CEPN.2HCl [16-0203-012-098-10] gave a Sample solubility in series [1] of 38.7 mg/mL. Regarding `COc1ccc2cc1Oc1ccc(cc1)C[C@H]1c3c(cc4c(c3Oc3cc5c(cc3OC)CCN(C)[C@@H]5C2)OCO4)CCN1C` [HBr salt, Cepharanthine bis-hydrobromide], in series [2] (read-out: Final Concentration (solubility in water)), the solubility is 17.1 mg/mL.
